The source made the active and inactive calls.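 How the source made its calls: active means more than half of replicate measurements showing over 20% loss of kinase signal relative to plate controls; inconclusive means some but at most half of replicates over 20% loss; inactive means no replicate over 20% signal loss.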
molecular target: Glycogen synthase kinase-3 alpha (Homo sapiens) (UniProt P49840); assay: concentration-response blocking of human GSK3A – biochemical, luminescence, cell-free homogeneous, retest, dose response (AID 463203); settings: GSK-3 alpha enzyme, ADP-Glo luminescence, 60 min
Sequence (P49840 whole entry, looked up): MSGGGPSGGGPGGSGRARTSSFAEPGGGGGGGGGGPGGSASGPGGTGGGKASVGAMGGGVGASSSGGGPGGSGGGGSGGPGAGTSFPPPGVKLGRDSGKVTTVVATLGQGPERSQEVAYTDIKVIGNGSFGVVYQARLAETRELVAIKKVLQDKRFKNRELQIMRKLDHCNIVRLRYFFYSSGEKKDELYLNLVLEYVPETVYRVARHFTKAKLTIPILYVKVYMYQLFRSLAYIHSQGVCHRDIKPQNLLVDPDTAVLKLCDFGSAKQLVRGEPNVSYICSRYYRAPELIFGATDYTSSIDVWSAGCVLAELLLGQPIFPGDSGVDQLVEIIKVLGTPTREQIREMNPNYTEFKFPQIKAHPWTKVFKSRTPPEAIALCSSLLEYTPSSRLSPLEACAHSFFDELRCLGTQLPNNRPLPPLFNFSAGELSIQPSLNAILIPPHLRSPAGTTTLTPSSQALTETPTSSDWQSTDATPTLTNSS

Compound | AC50
COc1c2ccccc2c(OC)c2ccccc12 | > 30 µM (inactive)
COC(=O)c1c(NC(=O)CN2C(=O)NC3(CCc4ccccc4C3)C2=O)sc2c1CCCCC2 (stereo unspecified) | > 30 µM (inactive)
CCOc1cc(/C=N/NC(=O)N/N=C/c2ccc(O)c(OCC)c2)ccc1O | > 30 µM (inactive)
CCc1ccc(C2CC(c3cccc(Cl)c3)n3nc(N)nc3N2)cc1 (stereo unspecified) | > 30 µM (inactive)
Cc1ccc(/C=N/NC(=O)c2nnn(-c3nonc3N)c2CN(C)C)o1 | > 30 µM (inactive)
N/C(=N\OC(=O)c1ccc(Br)cc1)c1cccc([N+](=O)[O-])c1 | > 30 µM (inactive)
COc1ccccc1NC(=O)CCSc1nnc(-c2ccc(O)cc2)o1 | 8.24 µM
FC(F)(F)COc1ccc(-c2nnc(SCc3c(Cl)cccc3Cl)o2)cn1 | > 30 µM (inactive)
CCOc1nc(NCCN2CCOCC2)nc(Nc2ccc([N+](=O)[O-])cc2)n1 | > 30 µM (inactive)
COc1cc(CN2CCCN(C)CC2)c([N+](=O)[O-])cc1OC | > 30 µM (inactive)
CC(C)NC(=O)Nc1cccc(Cl)c1 | > 30 µM (inactive)
CCSc1nc2sc3c(c2c(=O)n1-c1ccccc1C)CCN(C)C3 | > 30 µM (inactive)
Cc1cc(=O)[nH]c(SCC(=O)O)c1C#N | > 30 µM (inactive)
COc1ccc(-n2c(C)c([N+](=O)[O-])c3ccc(O)c(CN(C)C)c32)cc1 | 5.94 µM
CCOC(=O)c1c(NC(=O)CSc2nnc(CNc3ccc(C)cc3C)o2)sc(C)c1C | > 30 µM (inactive)
O=[N+]([O-])c1ccc(NCCCN2CCOCC2)nc1 | > 30 µM (inactive)
COc1ccc(Nc2cc(C)nc(N)n2)cc1 | > 30 µM (inactive)
CC(=O)C1C(c2ccccc2)c2c(n[nH]c2C)CC1(C)O (stereo unspecified) | > 30 µM (inactive)
Cc1ccc(S(=O)(=O)Nc2ccc(O)c3ncccc23)cc1 | > 30 µM (inactive)
COc1ccc(CC(=O)Oc2ccc(C)cc2C)cc1 | > 30 µM (inactive)
CCNC(=S)NNC(=O)Cc1ccccc1 | > 30 µM (inactive)
O=C(CSc1nnc(-c2ccc(O)cc2)o1)Nc1ccc2c(c1)OCCO2 | 0.463 µM
CC(C)CC(=O)NC(=S)Nc1sc2c(c1C(N)=O)CCC2 | > 30 µM (inactive)
Cc1ccc(CSc2nnc(-c3cccnc3)o2)cc1 | > 30 µM (inactive)
COCCNc1nc(N)c([N+](=O)[O-])c(NCc2ccccc2)n1 | 7.15 µM
Cc1cc(C(C#N)c2ccccc2F)n2ncnc2n1 (stereo unspecified) | 1.87 µM

Compound | AC50
CN(Cc1c(C(=O)N/N=C/c2cccc(O)c2)nnn1-c1nonc1N)c1ccccc1 | 2.8 µM
O=C(CSc1nc2ccccc2c(=O)n1-c1ccc(F)cc1F)c1c[nH]c2ccccc12 | > 30 µM (inactive)
O=C(COc1ccc(-n2cnnn2)cc1)Nc1ccc(F)c(F)c1F | > 30 µM (inactive)
CCOc1ccc(Nc2nc(N)c3ccccc3n2)cc1 | 31.2 µM
COc1ccc(-n2c(SCC(N)=O)nnc2-c2ccco2)cc1 | > 30 µM (inactive)
COc1ccc(OC)c(/C=C2\S/C(=N/NC(=O)c3ccc4ccccc4c3)NC2=O)c1 | > 30 µM (inactive)
Cc1ccc(N=CC2=C(O)CC(C)(C)CC2=O)nc1 | > 30 µM (inactive)
Cc1ccccc1C(=O)O/N=C(\N)c1cccc([N+](=O)[O-])c1 | > 30 µM (inactive)
NC(=O)CSc1nc(C2CC2)nc2sc3c(c12)CCCC3 | > 30 µM (inactive)
N#C/C(=N\Nc1ccccc1Cl)C(=O)c1ccccc1 | > 30 µM (inactive)
Oc1ccc(-c2nnc(-c3ccc(O)cc3)nn2)cc1 | > 30 µM (inactive)
Cc1nc(Nc2ccc(C(=O)O)cc2)nc(Nc2ccc(C(=O)O)cc2)c1[N+](=O)[O-] | 11.7 µM
O=C(COc1ccccc1Br)NC1CC1 | > 30 µM (inactive)
CCN(CC)CCCNc1ncnc2scc(-c3ccc(F)cc3)c12 | > 30 µM (inactive)
COc1ccc2[nH]c(-c3ccc(C)cc3)cc(=O)c2c1 | > 30 µM (inactive)
O=C(C[n+]1ccccc1)c1ccc(Cl)cc1 | > 30 µM (inactive)
NC(=O)c1cc([N+](=O)[O-])c(Cl)cc1NCc1cccnc1 | 4.43 µM
Nc1nonc1-n1nnc(C(=O)N/N=C/c2cccnc2)c1-c1cccs1 | 1.03 µM
COc1ccccc1C(=O)NNC(=O)c1cccc(Cl)c1 | > 30 µM (inactive)
COc1ccccc1N=c1oc2c(OC)cccc2cc1C(=O)NCc1ccco1 | > 30 µM (inactive)
CNc1nc(Cl)c(SC)c(NC2CCCCC2)n1 | > 30 µM (inactive)
Cc1cnn(-c2cc(N/N=C/c3ccc(F)cc3)ncn2)c1 | > 30 µM (inactive)
COC1(OC)N=C(N)C2(C#N)C(c3ccc4c(c3)OCO4)C12C#N (stereo unspecified) | 20.1 µM
COc1ccc2cc(C(=O)NCc3ccco3)c(=O)oc2c1 | > 30 µM (inactive)
COc1cccc(/C=N/Nc2ccc([N+](=O)[O-])cn2)c1O | > 30 µM (inactive)
COc1cc(C(=O)NCC(=O)N/N=C\C(C)=C/c2ccccc2)cc(OC)c1OC | > 30 µM (inactive)

Compound | AC50
CC1=C(C(=O)OCc2ccccc2)C(c2cccc(Br)c2)NC(=O)N1 (stereo unspecified) | 28.7 µM
Cc1nc(SCC(=O)N(CC(C)C)C2CCS(=O)(=O)C2)c2ccccc2n1 (stereo unspecified) | > 30 µM (inactive)
Cc1c(Nc2ncccc2C(=O)O)cccc1C(F)(F)F | > 30 µM (inactive)
COc1ccc(Br)cc1C(=O)Nc1ccc(NC(=O)c2ccco2)cc1 | > 30 µM (inactive)
CCOC(=O)c1cccc(NC(=O)C2CCCN2S(=O)(=O)c2cccc3cccnc23)c1 (stereo unspecified) | 29.5 µM
c1ccc2c3c([nH]c2c1)-c1[nH]ncc1CC3 | 25.1 µM
CCC/C(=N/NC(=O)c1nnn(-c2nonc2N)c1CN1CCCCC1)c1ccccc1 | 18.7 µM
Cc1ccnc(NC(=O)CCC(=O)N(CC(=O)NCc2ccc(F)cc2)Cc2ccco2)c1 | > 30 µM (inactive)
Nn1c(SCc2ccccc2F)nnc1-c1ccncc1 | > 30 µM (inactive)
CN(C)C(=O)c1ccc(NC(=O)c2cc(-n3cnnc3)ccc2Cl)cc1 | > 30 µM (inactive)
Cc1cc(Nc2ccc(C(=O)O)cc2)nc(N)n1 | > 30 µM (inactive)
O=c1[nH]c(=O)n(C2CCCCCC2)c(O)c1C=NCCCN1CCOCC1 | 14.4 µM
CCc1ccc(N2CC(C(=O)Nc3nccs3)CC2=O)cc1 (stereo unspecified) | > 30 µM (inactive)
CCOCCOC(=O)c1[nH]c2c(c1C)C(=O)CC(c1cc(OC)c(OC)c(OC)c1)C2 (stereo unspecified) | > 30 µM (inactive)
CN(C)CCCNc1ccc(S(N)(=O)=O)cc1[N+](=O)[O-] | > 30 µM (inactive)
CCOC(=O)c1c(NC(=O)CN2C(=O)NC3(CCCCC3C)C2=O)sc(C(=O)N(C)C)c1C (stereo unspecified) | > 30 µM (inactive)
CNC(=O)CSc1nnc(-c2ccco2)n1-c1ccccc1OC | > 30 µM (inactive)
CC(C)(C)NC(=O)/C(=C/c1ccccc1F)NC(=O)c1ccc([N+](=O)[O-])cc1 | > 30 µM (inactive)
CC(=O)c1sc(Nc2cccc(C)c2)nc1C | > 30 µM (inactive)
O=C1Nc2ccccc2C1(O)c1ccccc1O (stereo unspecified) | > 30 µM (inactive)
COc1ccc(Br)cc1C1CC(=O)N2CN(Cc3ccccc3)CSC2=C1C#N (stereo unspecified) | > 30 µM (inactive)
Cc1ccc(S(=O)(=O)N(CC(O)CN2CCCC2)c2ccccc2)cc1 (stereo unspecified) | > 30 µM (inactive)
C/C(=N\NC(=O)c1nnn(-c2nonc2N)c1-c1ccccc1)c1cccnc1 | 18.3 µM
O=C1CCCC2=C1C(c1ccc(O)cc1)c1c(ccc3ccccc13)N2 (stereo unspecified) | > 30 µM (inactive)

From PubChem BioAssay AID463203 (Broad Institute, 2010)
